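GI50 marks 50% less growth. TGI: total growth inhibition.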
Assays:
Assay in all cases: DTP human tumour cell line panel, 384-well format
MOLT-4 leukemia = test system: MOLT-4 leukemia
NCI-H23 lung = test system: NCI-H23 lung
UACC-62 melanoma = test system: UACC-62 melanoma
SF-295 CNS = test system: SF-295 CNS
SK-MEL-2 melanoma = test system: SK-MEL-2 melanoma
RPMI-8226 leukemia = test system: RPMI-8226 leukemia
ACHN renal = test system: ACHN renal
NCI/ADR-RES ovarian = test system: NCI/ADR-RES ovarian
HCT-15 colon = test system: HCT-15 colon
A498 renal = test system: A498 renal
786-0 renal = test system: 786-0 renal
MCF7 breast = test system: MCF7 breast
MDA-MB-468 breast = test system: MDA-MB-468 breast
UO-31 renal = test system: UO-31 renal
TK-10 renal = test system: TK-10 renal
SR leukemia = test system: SR leukemia
HL-60(TB) leukemia = test system: HL-60(TB) leukemia
SK-OV-3 ovarian = test system: SK-OV-3 ovarian
KM12 colon = test system: KM12 colon
HS 578T breast = test system: HS 578T breast
SN12C renal = test system: SN12C renal
SNB-19 CNS = test system: SNB-19 CNS
EKVX NSCLC = test system: EKVX NSCLC
PC-3 prostate = test system: PC-3 prostate
SF-268 CNS = test system: SF-268 CNS
K-562 leukemia = test system: K-562 leukemia
HOP-62 NSCLC = test system: HOP-62 NSCLC
UACC-257 melanoma = test system: UACC-257 melanoma
RXF 393 renal = test system: RXF 393 renal
CCRF-CEM leukemia = test system: CCRF-CEM leukemia
BT-549 breast = test system: BT-549 breast
NCI-H322M lung = test system: NCI-H322M lung
CAKI-1 renal = test system: CAKI-1 renal
HCC-2998 colon = test system: HCC-2998 colon
NCI-H522 lung = test system: NCI-H522 lung
DU-145 prostate = test system: DU-145 prostate
IGROV1 ovarian = test system: IGROV1 ovarian
HT29 colon = test system: HT29 colon
HCT-116 colon = test system: HCT-116 colon
T-47D breast = test system: T-47D breast
NCI-H226 lung = test system: NCI-H226 lung
MDA-MB-435 melanoma = test system: MDA-MB-435 melanoma
A549 NSCLC = test system: A549 NSCLC
MALME-3M melanoma = test system: MALME-3M melanoma
MDA-MB-231 breast = test system: MDA-MB-231 breast
SNB-75 CNS = test system: SNB-75 CNS
COLO 205 colon = test system: COLO 205 colon
OVCAR-4 ovarian = test system: OVCAR-4 ovarian
OVCAR-8 ovarian = test system: OVCAR-8 ovarian
SF-539 CNS = test system: SF-539 CNS
LOX IMVI melanoma = test system: LOX IMVI melanoma
SK-MEL-28 melanoma = test system: SK-MEL-28 melanoma
U251 glioblastoma = test system: U251 glioblastoma
NCI-H460 NSCLC = test system: NCI-H460 NSCLC
SK-MEL-5 melanoma = test system: SK-MEL-5 melanoma
OVCAR-3 ovarian = test system: OVCAR-3 ovarian
HOP-92 NSCLC = test system: HOP-92 NSCLC
SW-620 colon = test system: SW-620 colon
M14 melanoma = test system: M14 melanoma

Cc1c(-c2c(-c3ccc(F)o3)sc3ncnc(O[C@H](Cc4ccccc4OCc4ccnn4CC(F)(F)F)C(=O)O)c23)ccc(OCCN2CCN(C)CC2)c1Cl
GI50 (MOLT-4 leukemia): < 10 nM
TGI (MOLT-4 leukemia): < 10 nM
GI50 (NCI-H23 lung): 11.3 nM
TGI (NCI-H23 lung): 31.8 nM
GI50 (UACC-62 melanoma): < 10 nM
TGI (UACC-62 melanoma): 10.2 nM
GI50 (SF-295 CNS): 1660 nM
TGI (SF-295 CNS): 3060 nM
GI50 (SK-MEL-2 melanoma): < 10 nM
TGI (SK-MEL-2 melanoma): < 10 nM
GI50 (RPMI-8226 leukemia): < 10 nM
TGI (RPMI-8226 leukemia): < 10 nM
GI50 (ACHN renal): 6940 nM
TGI (ACHN renal): 18800 nM
GI50 (NCI/ADR-RES ovarian): 27400 nM
TGI (NCI/ADR-RES ovarian): 95700 nM
GI50 (HCT-15 colon): 10400 nM
TGI (HCT-15 colon): 22200 nM
GI50 (A498 renal): 3340 nM
TGI (A498 renal): 9930 nM
GI50 ([…]-0 renal): 2110 nM
TGI (786-0 renal): 4500 nM
GI50 (MCF7 breast): < 10 nM
TGI (MCF7 breast): 1180 nM
GI50 (MDA-MB-468 breast): < 10 nM
TGI (MDA-MB-468 breast): < 10 nM
GI50 (UO-31 renal): 15600 nM
TGI (UO-31 renal): 29100 nM
GI50 (TK-10 renal): 3270 nM
TGI (TK-10 renal): 8770 nM
GI50 (SR leukemia): < 10 nM
TGI (SR leukemia): < 10 nM
GI50 (HL-60(TB) leukemia): < 10 nM
TGI (HL-60(TB) leukemia): < 10 nM

CC(C)(O)CS(=O)(=O)Nc1ccc2c(c1)CCN(C(=O)COc1cccnc1)C2
GI50 (SK-OV-3 ovarian): 10 nM
TGI (SK-OV-3 ovarian): 23.6 nM
GI50 (KM12 colon): 17.3 nM
TGI (KM12 colon): 43.2 nM
GI50 (HS 578T breast): 17.3 nM
TGI (HS 578T breast): 32.4 nM
GI50 (SN12C renal): < 10 nM
TGI (SN12C renal): < 10 nM
GI50 (SNB-19 CNS): 14.9 nM
TGI (SNB-19 CNS): 29.6 nM
GI50 (EKVX NSCLC): 46.4 nM
TGI (EKVX NSCLC): 164 nM
GI50 (PC-3 prostate): 10.8 nM
TGI (PC-3 prostate): 23.2 nM
GI50 (SF-268 CNS): 20 nM
TGI (SF-268 CNS): 35 nM
GI50 (K-562 leukemia): < 10 nM
TGI (K-562 leukemia): 10.9 nM
GI50 (HOP-62 NSCLC): 25 nM
TGI (HOP-62 NSCLC): 52.2 nM
GI50 (MOLT-4 leukemia): < 10 nM
TGI (MOLT-4 leukemia): < 10 nM
GI50 (UACC-257 melanoma): 143 nM
TGI (UACC-257 melanoma): 590 nM
GI50 (RXF 393 renal): 18.3 nM
TGI (RXF 393 renal): 35.6 nM
GI50 (CCRF-CEM leukemia): < 10 nM
TGI (CCRF-CEM leukemia): < 10 nM
GI50 (NCI-H23 lung): 29.1 nM
TGI (NCI-H23 lung): 78.7 nM
GI50 (BT-549 breast): 21.6 nM
TGI (BT-549 breast): 40.1 nM
GI50 (NCI-H322M lung): 10.9 nM
TGI (NCI-H322M lung): 38.9 nM
GI50 (UACC-62 melanoma): 31.3 nM
TGI (UACC-62 melanoma): 74.9 nM
GI50 (SF-295 CNS): 29.5 nM
TGI (SF-295 CNS): 74.7 nM
GI50 (CAKI-1 renal): 20.4 nM
TGI (CAKI-1 renal): 37.9 nM
GI50 (HCC-2998 colon): 21.7 nM
TGI (HCC-2998 colon): 42.1 nM
GI50 (NCI-H522 lung): < 10 nM
TGI (NCI-H522 lung): < 10 nM
GI50 (DU-145 prostate): 22.6 nM
TGI (DU-145 prostate): 45.9 nM
GI50 (IGROV1 ovarian): 19 nM
TGI (IGROV1 ovarian): 34.2 nM
GI50 (HT29 colon): 36 nM
TGI (HT29 colon): 102 nM
GI50 (RPMI-8226 leukemia): 43.6 nM
TGI (RPMI-8226 leukemia): 163 nM
GI50 (HCT-116 colon): < 10 nM
TGI (HCT-116 colon): < 10 nM
GI50 (ACHN renal): 37 nM
TGI (ACHN renal): 127 nM
GI50 (T-47D breast): < 10 nM
TGI (T-47D breast): < 10 nM
GI50 (NCI/ADR-RES ovarian): 145 nM
TGI (NCI/ADR-RES ovarian): 279 nM
GI50 (HCT-15 colon): 33.9 nM
TGI (HCT-15 colon): 108 nM
GI50 (NCI-H226 lung): 871 nM
TGI (NCI-H226 lung): 26000 nM
GI50 (A498 renal): 390 nM
TGI (A498 renal): 3610 nM
GI50 (MDA-MB-435 melanoma): 20 nM
TGI (MDA-MB-435 melanoma): 34.6 nM
GI50 ([…]-0 renal): 18.6 nM
TGI (786-0 renal): 34 nM
GI50 (A549 NSCLC): 234 nM
TGI (A549 NSCLC): 494 nM
GI50 (MALME-3M melanoma): 83.5 nM
TGI (MALME-3M melanoma): 258 nM
GI50 (MDA-MB-231 breast): 43.5 nM
TGI (MDA-MB-231 breast): 135 nM
GI50 (SNB-75 CNS): 17.8 nM
TGI (SNB-75 CNS): 32.6 nM
GI50 (MCF7 breast): 23.1 nM
TGI (MCF7 breast): 48 nM
GI50 (COLO 205 colon): < 10 nM
TGI (COLO 205 colon): < 10 nM
GI50 (OVCAR-4 ovarian): 31.3 nM
TGI (OVCAR-4 ovarian): 78.2 nM
GI50 (MDA-MB-468 breast): 21.7 nM
TGI (MDA-MB-468 breast): 39.7 nM
GI50 (OVCAR-8 ovarian): < 10 nM
TGI (OVCAR-8 ovarian): < 10 nM
GI50 (SF-539 CNS): < 10 nM
TGI (SF-539 CNS): < 10 nM
GI50 (UO-31 renal): 19.5 nM
TGI (UO-31 renal): 35.7 nM
GI50 (LOX IMVI melanoma): 33.1 nM
TGI (LOX IMVI melanoma): 170 nM
GI50 (TK-10 renal): 32.3 nM
TGI (TK-10 renal): 92 nM
GI50 (SK-MEL-28 melanoma): 22.8 nM
TGI (SK-MEL-28 melanoma): 43.4 nM
GI50 (U251 glioblastoma): < 10 nM
TGI (U251 glioblastoma): 12.8 nM
GI50 (NCI-H460 NSCLC): 239 nM
TGI (NCI-H460 NSCLC): 435 nM
GI50 (SK-MEL-5 melanoma): 20.8 nM
TGI (SK-MEL-5 melanoma): 40.3 nM
GI50 (SR leukemia): 29 nM
TGI (SR leukemia): 60.4 nM
GI50 (OVCAR-3 ovarian): < 10 nM
TGI (OVCAR-3 ovarian): 12.2 nM
GI50 (HL-60(TB) leukemia): < 10 nM
TGI (HL-60(TB) leukemia): < 10 nM
GI50 (HOP-92 NSCLC): 121 nM
TGI (HOP-92 NSCLC): 320 nM
GI50 (SW-620 colon): < 10 nM
TGI (SW-620 colon): < 10 nM
GI50 (M14 melanoma): 19.1 nM
TGI (M14 melanoma): 33.6 nM

Reference: PubChem BioAssay (NCI)
